How the values were obtained:
Format in all cases: in vivo, human
[1] = test system: tumor growth (sum of the longest diameter for all target lesions); assay: Exposure-response tumor growth inhibition model (NONMEM nonlinear mixed-effects); details: final tumor growth inhibition model
Description: Fifty-four subjects (39 with ovarian, fallopian tube, or peritoneal cancers, 14 with breast cancer, and 1 with prostate cancer) were included in an exposure-response analysis using nonlinear mixed-effects modeling approach with NONMEM software (version 7.3.0) (Table 6).
Veliparib pharmacokinetics (PK) was described with a one-compartment model with first-order elimination process (kel) (FIG. 4). For the IR formulation, absorption was modeled as a first-order process (ka) (Equations 1a and 1b). For the ER formulation, the absorption was modeled as a zero-order process (Dose/Duration) (Equations 2a and 2b).
Subsequently, the relationship between veliparib PK exposure and longitudinal tumor growth inhibition was analyzed. The time course of tumor growth inhibition was modeled using an exponential tumor growth model represented by a single tumor compartment linked to veliparib central compartment with linear inhibitory effect of veliparib on tumor growth (see FIG. 4 and Equation 3). The possible measurement error at the baseline was accounted for by allowing individual deviations from the observed baseline as between-subject variability. Inter-individual variability was incorporated on the slope and estimated baseline using exponential function and the residual variability was characterized using additive error. […]

breast cancer = assay: Best tumor response in patients with breast cancer; details: patients with BC, 6/16
Description: (§1) The term “efficacy” as used herein refers to an inhibitory effect on tumor growth, which can be manifested as slowing, retarding, arresting or even reversing (i.e., shrinking) growth of the tumor. In some embodiments, the effect on tumor growth is associated with suppression by a PARP inhibitory compound, for example Veliparib. In clinical sittings, efficacy can be measured by one skilled in the art and by a number of efficacy endpoints, for example, overall survival (OS), progression free survival (PPS), time to progression (TTP), time to treatment failure (TTF), event-free survival (EFS), time to next treatment (TINT), objective response rate (ORR), duration of response (DoR), and/or response rate, for example, partial response (PR) or complete response (CR). The term “partial response” or “PR” as used herein, means a partial response of the target lesion, indicated by at least a 30% decrease in the sum of diameters of target lesions, taking as reference the baseline sum diameters.
(§2) Eligible patients had metastatic BRCA+ cancer, BRCA± high-grade serious ovarian/primary peritoneal/fallopian tube cancer (OC), (part 1/2), or BRCA+ breast cancer (BC), or OC (part 3).
(§3) Best tumor responses were compared between patients from Part 1 who received IR-v as the primary treatment and patients in Part 2 and Part 3 of the study who received ER-v formulation C. […]

ovarian cancer = assay: Best tumor response in patients with ovarian cancer; details: patients with OC, 8/44
Description: as §1, §2, §3

C[C@]1(c2nc3c(C(N)=O)cccc3[nH]2)CCCN1 [veliparib, 2-[(2R)-2-methylpyrrolidin-2-yl]-1H-benzimidazole-4-carboxamide]
BRCA effect on Slope (i.e., ratio of Slope for BRCA-mut to Slope for BRCA-wt), Population Estimate [1]: 1.72 | Confirmed and unconfirmed responses (breast cancer): 38% | Confirmed and unconfirmed responses (ovarian cancer): 18%

Source: patent US20190029951A1, “EXTENDED RELEASE FORMULATIONS OF VELIPARIB FOR THE TREATMENT OF CANCER” (AbbVie Inc., priority 2016, published 2019)
